Laboratory results: patent US20250353891A1 (MEDIMMUNE LIMITED, priority 2022, published 2025)
pEC50: −log10 of the molar value. Starred links: 1 amine or outer side, 2 acyl side, 3 side chain; linkers in the order of their positions; H or OH if unused. Non-standard residues stand in square brackets, D forms with d. Residues, ends and D or L forms follow the SMILES beside them. Groups on a side chain read outwards from the residue. *: point of attachment. C18 diacid = O=C(O)CCCCCCCCCCCCCCCCC(=O)*; Dip = N[C@H](C(=O)O)C(c1ccccc1)c1ccccc1; γGlu = O=C(O)[C@H](CCC(=O)[*:2])N[*:1]; Stearoyl = CCCCCCCCCCCCCCCCCC(=O)*; αMeF = C[C@](N)(Cc1ccccc1)C(=O)O; PEG4 = NCCOCCOCCOCCOCCC(=O)O; PEG2 = NCCOCCOCCC(=O)O; AEEA = NCCOCCOCC(=O)O; Aib = CC(C)(N)C(=O)O

Legend:
[1] = molecular target: human GLP-1 receptor (hGLP-1R) (Homo sapiens, UniProt P43220); test: cAMP production (HTRF) in CHO cells expressing hGLP-1R; assay type: cell-based; design: expressed in transfected cells; conditions: for pEC50: Table 6, peptides modified at position 17, cAMP in CHO hGLP-1R cells, geometric mean, read-out: hGLP-1R EC50; for % Relative Potency Ratio: Table 6, % GLP-1R activity relative to GLP-1 / % GlucR activity relative to glucagon
human GLP-1 receptor (hGLP-1R), sequence (P43220 24-463): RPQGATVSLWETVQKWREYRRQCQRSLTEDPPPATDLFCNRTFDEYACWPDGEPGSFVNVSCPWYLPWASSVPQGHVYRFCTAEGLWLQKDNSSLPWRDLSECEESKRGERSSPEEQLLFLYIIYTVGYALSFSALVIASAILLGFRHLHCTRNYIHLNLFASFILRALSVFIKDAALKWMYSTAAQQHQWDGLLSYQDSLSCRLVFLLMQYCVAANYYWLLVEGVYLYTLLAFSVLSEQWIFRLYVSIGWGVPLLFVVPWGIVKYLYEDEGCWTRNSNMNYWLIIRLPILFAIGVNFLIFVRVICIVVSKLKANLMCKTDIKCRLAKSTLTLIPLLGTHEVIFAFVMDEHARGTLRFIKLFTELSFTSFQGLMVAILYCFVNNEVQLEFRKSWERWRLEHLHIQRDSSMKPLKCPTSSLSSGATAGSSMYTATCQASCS
Summary of the method: (§1)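 Read-out: HTRF cAMP (anti-cAMP cryptate donor, cAMP-d2 acceptor in conjugate/lysis buffer), converted to % Delta F and fitted by 4-parameter logistic for EC50. Cell densities were 1×10^5 cells/mL (hGLP-1R) or 2×10^5 cells/mL (hGCGR). Stimulation lasted 30 min at room temperature.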

[2] = molecular target: human glucagon receptor (hGCGR) (Homo sapiens, UniProt P47871); test: cAMP production (HTRF) in CHO cells expressing hGCGR; assay type: cell-based; design: expressed in transfected cells; conditions: Table 6, peptides modified at position 17; cAMP in CHO hGCGR cells; geometric mean; read-out: hGluc-R EC50
human glucagon receptor (hGCGR), sequence (P47871 26-477): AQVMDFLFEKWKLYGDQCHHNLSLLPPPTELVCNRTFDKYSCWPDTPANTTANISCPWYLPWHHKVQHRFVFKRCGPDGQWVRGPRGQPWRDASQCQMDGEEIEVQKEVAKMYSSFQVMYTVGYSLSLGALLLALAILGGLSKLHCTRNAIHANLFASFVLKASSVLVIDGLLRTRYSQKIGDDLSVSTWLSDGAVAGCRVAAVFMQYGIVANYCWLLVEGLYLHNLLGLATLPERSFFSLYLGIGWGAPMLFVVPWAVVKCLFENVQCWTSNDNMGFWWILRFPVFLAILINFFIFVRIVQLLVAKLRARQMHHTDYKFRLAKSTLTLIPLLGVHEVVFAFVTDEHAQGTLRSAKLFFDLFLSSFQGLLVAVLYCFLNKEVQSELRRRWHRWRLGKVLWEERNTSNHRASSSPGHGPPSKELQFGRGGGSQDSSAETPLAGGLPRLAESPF
Summary of the method: as §1

pEC50 [1] | % Relative Potency Ratio [1] | pEC50 [2] | SMILES
10.12 | 5.0 | 9.71 | CC(C)C[C@H](NC(=O)[C@H](Cc1c[nH]c2ccccc12)NC(=O)[C@H](CCCNC(=N)N)NC(=O)[C@@H](NC(=O)[C@H](Cc1ccccc1)NC(=O)[C@H](CC(=O)O)NC(=O)[C@H](CCC(N)=O)NC(=O)[C@H](C)NC(=O)[C@H](CCCNC(=N)N)NC(=O)[C@H](CCCCNC(=O)COCCOCCNC(=O)COCCOCCNC(=O)CC[C@H](NC(=O)CCCCCCCCCCCCCCCCC(=O)O)C(=O)O)NC(=O)[C@H](CO)NC(=O)[C@H](CC(=O)O)NC(=O)[C@H](CC(C)C)NC(=O)[C@](C)(Cc1ccccc1)NC(=O)[C@H](CCCCN)NC(=O)[C@H](CO)NC(=O)[C@@H](NC(=O)[C@H](CC(=O)O)NC(=O)[C@H](CO)NC(=O)[C@@H](NC(=O)[C@H](Cc1ccccc1)NC(=O)[C@@H](NC(=O)CNC(=O)[C@H](CCC(N)=O)NC(=O)C(C)(C)NC(=O)[C@@H](N)Cc1c[nH]cn1)[C@@H](C)O)[C@@H](C)O)C(C)C)C(C)C)C(=O)N[C@@H](CC(C)C)C(=O)NC(C)(C)C(=O)N[C@H](C(=O)N[C@@H](CCC(=O)O)C(=O)O)[C@@H](C)O [Peptide 39] (H-H[Aib]QGTFTSDVSK[αMeF]LDSK([AEEA-AEEA-γGlu-C18 diacid])RAQDFVRWLL[Aib]TE-OH; N-terminus assumed)
10.52 | 8.2 | 9.91 | CC(C)C[C@H](NC(=O)[C@H](Cc1c[nH]c2ccccc12)NC(=O)[C@H](CCC(N)=O)NC(=O)[C@@H](NC(=O)[C@H](Cc1ccccc1)NC(=O)[C@H](CC(=O)O)NC(=O)[C@H](CCC(N)=O)NC(=O)[C@H](C)NC(=O)[C@H](CCCNC(=N)N)NC(=O)[C@H](CCCCNC(=O)COCCOCCNC(=O)COCCOCCNC(=O)CC[C@H](NC(=O)CCCCCCCCCCCCCCCCC(=O)O)C(=O)O)NC(=O)[C@H](CO)NC(=O)[C@H](CC(=O)O)NC(=O)[C@H](CC(C)C)NC(=O)[C@](C)(Cc1ccccc1)NC(=O)[C@H](CCCCN)NC(=O)[C@H](CO)NC(=O)[C@@H](NC(=O)[C@H](CC(=O)O)NC(=O)[C@H](CO)NC(=O)[C@@H](NC(=O)[C@H](Cc1ccccc1)NC(=O)[C@@H](NC(=O)CNC(=O)[C@H](CCC(N)=O)NC(=O)C(C)(C)NC(=O)[C@@H](N)Cc1c[nH]cn1)[C@@H](C)O)[C@@H](C)O)C(C)C)C(C)C)C(=O)N[C@@H](CC(C)C)C(=O)NC(C)(C)C(=O)N[C@H](C(=O)O)[C@@H](C)O [Peptide 40] (H-H[Aib]QGTFTSDVSK[αMeF]LDSK([AEEA-AEEA-γGlu-C18 diacid])RAQDFVQWLL[Aib]T-OH; N-terminus assumed)
9.18 | 17.1 | 8.24 | CC(C)C[C@H](NC(=O)[C@H](Cc1c[nH]c2ccccc12)NC(=O)[C@H](CCC(N)=O)NC(=O)[C@@H](NC(=O)[C@H](Cc1ccccc1)NC(=O)[C@H](CC(=O)O)NC(=O)[C@H](CCC(N)=O)NC(=O)[C@H](C)NC(=O)[C@H](CCCNC(=N)N)NC(=O)[C@H](CCCCNC(=O)COCCOCCNC(=O)COCCOCCNC(=O)CC[C@H](NC(=O)CCCCCCCCCCCCCCCCC(=O)O)C(=O)O)NC(=O)[C@H](CO)NC(=O)[C@H](CC(=O)O)NC(=O)[C@H](CC(C)C)NC(=O)[C@](C)(Cc1ccccc1)NC(=O)[C@H](CCCCN)NC(=O)[C@H](CO)NC(=O)[C@H](Cc1ccc(O)cc1)NC(=O)[C@H](CC(=O)O)NC(=O)[C@H](CO)NC(=O)[C@@H](NC(=O)[C@H](Cc1ccccc1)NC(=O)[C@@H](NC(=O)CNC(=O)[C@H](CCC(N)=O)NC(=O)C(C)(C)NC(=O)[C@@H](N)Cc1c[nH]cn1)[C@@H](C)O)[C@@H](C)O)C(C)C)C(=O)N[C@H](C(=O)NCCOCCOCCOCCOCCC(N)=O)C(C)C [Peptide 41] (H-H[Aib]QGTFTSDYSK[αMeF]LDSK([AEEA-AEEA-γGlu-C18 diacid])RAQDFVQWLV[PEG4]-NH2; N-terminus assumed)
9.18 | 24.4 | 8.09 | CC(C)C[C@H](NC(=O)C(C)(C)NC(=O)[C@H](CCC(N)=O)NC(=O)[C@@H](NC(=O)[C@H](Cc1ccccc1)NC(=O)[C@H](CC(=O)O)NC(=O)[C@H](CCC(N)=O)NC(=O)[C@H](C)NC(=O)[C@H](CCCNC(=N)N)NC(=O)[C@H](CCCCNC(=O)COCCOCCNC(=O)COCCOCCNC(=O)CC[C@H](NC(=O)CCCCCCCCCCCCCCCCC(=O)O)C(=O)O)NC(=O)[C@H](CO)NC(=O)[C@H](CC(=O)O)NC(=O)[C@H](CC(C)C)NC(=O)[C@](C)(Cc1ccccc1)NC(=O)[C@H](CCCCN)NC(=O)[C@H](CO)NC(=O)[C@@H](NC(=O)[C@H](CC(=O)O)NC(=O)[C@H](CO)NC(=O)[C@@H](NC(=O)[C@H](Cc1ccccc1)NC(=O)[C@@H](NC(=O)CNC(=O)[C@H](CCC(N)=O)NC(=O)C(C)(C)NC(=O)[C@@H](N)Cc1c[nH]cn1)[C@@H](C)O)[C@@H](C)O)C(C)C)C(C)C)C(=O)N[C@H](C(=O)N[C@@H](C)C(=O)N[C@H](C(=O)O)[C@@H](C)O)C(C)C [Peptide 42] (H-H[Aib]QGTFTSDVSK[αMeF]LDSK([AEEA-AEEA-γGlu-C18 diacid])RAQDFVQ[Aib]LVAT-OH; N-terminus assumed)
11.55 | 1.8 | 11.59 | CCCCCCCCCCCCCCCCCC(=O)N[C@@H](CCC(=O)N[C@@H](CCC(=O)NCCOCCOCCC(=O)NCCOCCOCCC(=O)NCCCC[C@H](NC(=O)[C@H](CO)NC(=O)[C@H](CC(=O)O)NC(=O)[C@H](CC(C)C)NC(=O)[C@@H](NC(=O)[C@H](CCCCN)NC(=O)[C@H](CO)NC(=O)[C@@H](NC(=O)[C@H](CC(=O)O)NC(=O)[C@H](CO)NC(=O)[C@@H](NC(=O)[C@](C)(Cc1ccccc1)NC(=O)[C@H](CO)NC(=O)CNC(=O)[C@H](CCC(N)=O)NC(=O)[C@H](CO)NC(=O)[C@@H](N)Cc1c[nH]cn1)[C@@H](C)O)C(C)C)C(c1ccccc1)c1ccccc1)C(=O)N[C@@H](C)C(=O)N[C@@H](C)C(=O)N[C@@H](CCC(N)=O)C(=O)N[C@@H](CC(=O)O)C(=O)N[C@@](C)(Cc1ccccc1)C(=O)N[C@H](C(=O)N[C@@H](CCC(N)=O)C(=O)NC(C)(C)C(=O)N[C@H](C(=O)N[C@@H](C)C(=O)N[C@@H](CC(N)=O)C(N)=O)[C@@H](C)CC)C(C)C)C(=O)O)C(=O)O [Peptide 54] (H-HSQGS[αMeF]TSDVSK[Dip]LDSK([PEG2-PEG2-γGlu-γGlu-Stearoyl])AAQD[αMeF]VQ[Aib]IAN-NH2; N-terminus assumed)
10.73 | 2.0 | 10.72 | CCCCCCCCCCCCCCCCCC(=O)N[C@@H](CCC(=O)N[C@@H](CCC(=O)NCCOCCOCCC(=O)NCCOCCOCCC(=O)NCCCC[C@H](NC(=O)[C@H](CO)NC(=O)[C@H](CC(=O)O)NC(=O)[C@H](CC(C)C)NC(=O)[C@@H](NC(=O)[C@H](CCCCN)NC(=O)[C@H](CO)NC(=O)[C@@H](NC(=O)[C@H](CC(=O)O)NC(=O)[C@H](CO)NC(=O)[C@@H](NC(=O)[C@](C)(Cc1ccccc1)NC(=O)[C@H](CO)NC(=O)CNC(=O)[C@H](CCC(N)=O)NC(=O)[C@H](CO)NC(=O)[C@@H](N)Cc1c[nH]cn1)[C@@H](C)O)C(C)C)C(c1ccccc1)c1ccccc1)C(=O)N[C@@H](C)C(=O)N[C@@H](C)C(=O)N[C@@H](CCC(N)=O)C(=O)N[C@@H](CC(=O)O)C(=O)N[C@@](C)(Cc1ccccc1)C(=O)N[C@H](C(=O)N[C@@H](CCC(N)=O)C(=O)N[C@H](C(=O)N[C@@H](CC(C)C)C(=O)N[C@@H](CCC(=O)O)C(=O)N[C@@H](C)C(N)=O)C(c1ccccc1)c1ccccc1)C(C)C)C(=O)O)C(=O)O [Peptide 55] (H-HSQGS[αMeF]TSDVSK[Dip]LDSK([PEG2-PEG2-γGlu-γGlu-Stearoyl])AAQD[αMeF]VQ[Dip]LEA-NH2; N-terminus assumed)
11.31 | 4.4 | 10.96 | CCCCCCCCCCCCCCCCCC(=O)N[C@@H](CCC(=O)N[C@@H](CCC(=O)NCCOCCOCCOCCOCCC(=O)NCCCC[C@H](NC(=O)[C@H](CO)NC(=O)[C@H](CC(=O)O)NC(=O)[C@H](CC(C)C)NC(=O)[C@@H](NC(=O)[C@H](CCCCN)NC(=O)[C@H](CO)NC(=O)[C@@H](NC(=O)[C@H](CC(=O)O)NC(=O)[C@H](CO)NC(=O)[C@@H](NC(=O)[C@](C)(Cc1ccccc1)NC(=O)[C@H](CO)NC(=O)CNC(=O)[C@H](CCC(N)=O)NC(=O)[C@H](CO)NC(=O)[C@@H](N)Cc1c[nH]cn1)[C@@H](C)O)C(C)C)C(c1ccccc1)c1ccccc1)C(=O)N[C@@H](C)C(=O)N[C@@H](C)C(=O)N[C@@H](CCC(N)=O)C(=O)N[C@@H](CC(=O)O)C(=O)N[C@@](C)(Cc1ccccc1)C(=O)N[C@H](C(=O)N[C@@H](CCC(=O)O)C(=O)NC(C)(C)C(=O)N[C@H](C(=O)N[C@H](C(=O)N[C@@H](CC(N)=O)C(=O)N[C@H](C(N)=O)[C@@H](C)O)[C@@H](C)CC)[C@@H](C)CC)C(C)C)C(=O)O)C(=O)O [Peptide 56] (H-HSQGS[αMeF]TSDVSK[Dip]LDSK([PEG4-γGlu-γGlu-Stearoyl])AAQD[αMeF]VE[Aib]IINT-NH2; N-terminus assumed)
